# Results: patent publication US7112598B2, “κ opioid receptor agonist comprising 2-phenylbenzothiazoline derivative” (Santen Pharmaceutical Co., Ltd., priority 2002, dated 2006)
# Where a name gives a salt, the structure may show the parent alone.
# Tests used:
# human κ opioid receptor = human κ opioid receptor (Homo sapiens, UniProt P41145); experiment: κ opioid receptor agonist activity test in GTP binding activity measurement system ([35S]GTPγS binding); type: biochemical; settings: test compound concentration 10^−9 M, binding of 10^−6 M (−)-U50488 = 100%, human κ opioid receptor membrane preparation, average of duplicate
# Sequence of human κ opioid receptor (P41145 whole entry): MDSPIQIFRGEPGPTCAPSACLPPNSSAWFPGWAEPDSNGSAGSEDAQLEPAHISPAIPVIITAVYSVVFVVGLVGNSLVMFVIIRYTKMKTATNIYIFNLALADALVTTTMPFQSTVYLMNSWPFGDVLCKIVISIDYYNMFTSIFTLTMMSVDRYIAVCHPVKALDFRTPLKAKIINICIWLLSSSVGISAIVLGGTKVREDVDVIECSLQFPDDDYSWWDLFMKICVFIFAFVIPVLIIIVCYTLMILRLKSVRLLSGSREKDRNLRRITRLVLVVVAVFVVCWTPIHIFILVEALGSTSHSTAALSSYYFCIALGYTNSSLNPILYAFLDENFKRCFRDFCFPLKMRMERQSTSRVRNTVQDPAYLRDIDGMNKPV
# Experimental: 1. κ Opioid Receptor Agonist Activity Tests in GTP Binding Activity Measurement System
# Jinmin Zhu et al. reported a method of evaluating agonist activities of drugs on a κ opioid receptor wherein guanosine 5′-triphosphate (GTP) radiolabelled with a human κ opioid receptor is used in J. Pharmaco. Exp. Ter., 282, 676–684 (1997). κ opioid receptor agonist activities (actions) of test compounds were evaluated according to the method described in the above-mentioned literature.
# N-2-Hydroxyethylpiperazine-N′-2-ethanesulfonic acid (HEPES, 4.77 g), magnesium chloride hexahydrate (2.03 g), sodium chloride (5.84 g), disodium […] (EDTA•2Na, 0.37 g), DL-dithiothreitol (DTT, 0.15 g) and bovine serum albumin (BSA, 1.0 g) were dissolved in ultrapure water, pH was adjusted to 7.4 with sodium hydroxide, and further ultrapure water was added to the mixture so that a total amount was one liter to prepare a incubation buffer.
# Nine volume of the incubation buffer was added to one volume of dimethyl sulfoxide (DMSO) to prepare a 10% DMSO-incubation buffer.
# Tris(hydroxymethyl)aminomethane hydrochloride (TRIZA-HCl, 66.1 g) and Tris(hydroxymethyl)aminomethane (TRIZA-Base, 9.7 g) were dissolved in ultrapure water so that a total amount was 10 liters to prepare a 50 mM Tris-hydrochloric acid buffer (pH 7.4).
# A human κ opioid receptor membrane preparation (100 unit/ml) was diluted 60 times with the incubation buffer under ice-cold to prepare a human κ opioid receptor membrane preparation solution. The membrane preparation solution was preserved under ice-cold.
# A test compound was dissolved in 100% DMSO to prepare a 10^−3 M test compound solution, and then the incubation buffer was added to the 10^−3 M test compound solution to prepare a 10^−4 M test compound solution. Next, the 10% dimethyl sulfoxide-incubation buffer was added to the 10^−4 M test compound solution to prepare a 10^−5 M, 10^−6 M, 10^−7 M, 10^−8 M or 10^−9 M test compound solution.
# A drug (−)-U50488 (J. Pharmacol. Exp. Ther., 224, 7–12 (1983)), which is known as a κ opioid receptor agonist, was used as a positive control drug in the tests.
# (−)-U-50488 was dissolved in 100% DMSO to prepare a 10^−3 M positive control drug solution, and then the incubation buffer was added to the 10^−3 M positive control drug solution to prepare a 10^−4 M positive control drug solution. Next, the 10% DMSO-incubation buffer was added to the 10^−4 M positive control drug solution to prepare a 10^−6 M positive control drug solution.
# GDP was dissolved in ultrapure water to prepare a 10^−3 M GDP solution, and the incubation buffer was added to the 10^−3 M GDP solution to prepare a 10^−5 M GDP solution.
# 10^−3 M [^35S]GTPγS was diluted with the incubation buffer to prepare 10^−9 M radiolabelled reagent.
# • 1. The incubation buffer (50 μl), the 10^−5 M GDP solution (50 μl), the human κ opioid receptor membrane preparation solution (300 μl), the test compound solution and the 10^−9 M radiolabelled reagent (50 μl) were put into a glass tube, and then the mixture was incubated at 30° C. for 60 minutes. • 2. The 50 mM Tris-hydrochloric acid buffer (pH 7.4) was added to the mixture to stop the reaction, the reaction mixture was suction-filtered with a GF/B filter, and then the residue on the GF/B filter was washed with the 50 mM Tris-hydrochloric acid buffer (3 ml) three times. • 3. The GF/B filter was air-dried, and then the residue on the GF/B filter was taken out with an antomatic dispenser and transfered into a vial. • 4. Scintisol EX-H (5 ml) was introduced into the vial to prepare a sample solution, and then radioactivity in the sample solution was measured with a liquid scintillation counter for one minute. The radioactivity was expressed in “cpm” (counts per minute). Calculation Formula of κ Opioid Receptor Agonist Activity
# Each agonist activity of the test compound on the κ opioid receptor was expressed in [^35S]GTPγS binding % when [^35S]GTPγS binding of 10^−6 M (−)-U50488 was 100%. […]
# [1] = test system: mouse acetic acid writhing; experiment: Antinociceptive action test by mouse acetic acid writhing method; type: in vivo; settings: 30 mg/kg oral, 20 min before 0.7% acetic acid i.p., writhing counted 10 to 20 minutes after acetic acid, vs vehicle group, average of seven samples; for inhibition in vivo at 30 mg/kg: read-out: Inhibition rate (%)
# Experimental: 2. Antinociceptive Action Tests by Mouse Acetic Acid Writhing Method
# Accordingly, antinociceptive action tests of test compounds were carried out using the mouse acetic acid writhing method, and analgesic effects of the test compounds were evaluated.
# Twenty minutes after oral administration of the test compound (30 mg/kg), the 0.7% acetic acid solution was administered intraperitoneally in a rate of 0.1 ml per 10 g of mouse weight.
# Inhibition rates were calculated according to the following equation.
# The antinociceptive action of the test compound was expressed in an inhibition rate to writhing numbers of a vehicle group.
SMILES,[^35S]GTP γ S binding % (human κ opioid receptor; Hydrochloride) [%],[^35S]GTP γ S binding % (human κ opioid receptor) [%],Inhibition rate (%) [1] [%],"Inhibition rate (%) ([1]; Hydrochloride, 30 mg/kg)",also measured
"COCCN(CCCOc1ccc(OC)cc1C1Sc2cc(Cl)ccc2N1C(C)=O)C(C)C.Cl (single isomer, unassigned; (+)) [Compound No. 9-1, (+)-3-Acetyl-6-chloro-2-[2-(3-(N-isopropyl-N-(2-methoxyethyl)amino)-propoxy)-5-methoxyphenyl]benzothiazoline Hydrochloride]",93.2,–,–,–,inhibition in vivo at 30 mg/kg [1]: 97.7%
"COCCN(CCCOc1ccc(OC)cc1C1Sc2cc(Cl)ccc2N1C(C)=O)C(C)C (centres unmarked) [Compound No. 3-25, 3-Acetyl-6-chloro-2-[2-(3-(N-isopropyl-N-(2-methoxyethyl)amino)-propoxy)-5-methoxyphenyl]benzothiazoline Hydrochloride]",–,67.9,91.0,–,–
"CCOCCN(CCCOc1ccc(OC)cc1C1Sc2ccccc2N1C(C)=O)C(C)C (single isomer, unassigned; (+)) [Compound No. 11-1, (+)-3-Acetyl-2-[2-(3-(N-(2-ethoxyethyl)-N-isopropylamino)propoxy)-5-methoxyphenyl]benzothiazoline Hydrochloride]",–,–,–,–,activation at 0.001 µM (human κ opioid receptor; read-out: [^35S]GTP γ S binding %): 66.8%; inhibition in vivo at 30 mg/kg [1]: 98.3%
"COCCOCOCCN(CCCOc1ccc(OC)cc1C1Sc2cc(Cl)ccc2N1C(C)=O)C(C)C (centres unmarked) [Compound No. 20-2, 3-Acetyl-6-chloro-2-[2-(3-(N-isopropyl-N-(2-(2-methoxyethoxymethoxy)-ethyl)amino)propoxy)-5-methoxyphenyl]benzothiazoline]",–,50.5,81.7,–,–
"COc1ccc(OC(C)CCN(CCO)C(C)C)c(C2Sc3cc(Cl)ccc3N2C(C)=O)c1 (centres unmarked) [Compound No. 7-2, 3-Acetyl-6-chloro-2-[2-(3-(N-(2-hydroxyethyl)-N-isopropylamino)-1-methylpropoxy)-5-methoxyphenyl]benzothiazoline Hydrochloride]",–,62.9,70.0,–,–
"CCOCCN(CCCOc1ccc(OC)cc1C1Sc2cc(Cl)ccc2N1C(C)=O)C(C)C (single isomer, unassigned; (+)) [Compound No. 9-3, (+)-3-Acetyl-6-chloro-2-[2-(3-(N-(2-ethoxyethyl)-N-isopropylamino)-propoxy)-5-methoxyphenyl]benzothiazoline Hydrochloride]",117.5,–,–,100.0,–
"CCOCCN(CCCOc1ccc(OC)cc1C1Sc2cc(Cl)ccc2N1C(C)=O)C(C)C (centres unmarked) [Compound No. 3-33, 3-Acetyl-6-chloro-2-[2-(3-(N-(2-ethoxyethyl)-N-isopropylamino)-propoxy)-5-methoxyphenyl]benzothiazoline Hydrochloride]",75.8,–,–,99.5,–
"COc1ccc(OCCCN(CCO)C(C)C)c(C2Sc3cc(Cl)ccc3N2C(C)=O)c1 (single isomer, unassigned; (+)) [Compound No. 9-2, (+)-3-Acetyl-6-chloro-2-[2-(3-(N-(2-hydroxyethyl)-N-isopropylamino)-propoxy)-5-methoxyphenyl]benzothiazoline Hydrochloride]",103.9,–,–,81.2,–
"COCOCCN(CCCOc1ccc(OC)cc1C1Sc2cc(Cl)ccc2N1C(C)=O)C(C)C (centres unmarked) [Compound No. 20-1, 3-Acetyl-6-chloro-2-[2-(3-(N-isopropyl-(N-(2-methoxymethyloxy-ethyl))amino)propoxy)-5-methoxyphenyl]benzothiazoline]",–,65.1,94.8,–,–
"COc1ccc(OCCCN(C)C(C)C)c(C2Sc3cc(Cl)ccc3N2C(C)=O)c1 (single isomer, unassigned; (+)) [Compound No. 9-12, (+)-3-Acetyl-6-chloro-2-[2-(3-(N-isopropyl-N-methylamino)propoxy)-5-methoxyphenyl]benzothiazoline Hydrochloride]",–,107.9,57.8,–,–
